Reference: US10881703B2, “Composition for use in the treatment of intestinal alterations” (priority 2016, dated 2021)

Test system: THP-1 cells and intestinal epithelial cells (CacoGoblet)
Test: Monocyte-epithelial cell adhesion assay (THP-1 cells on CacoGoblet)
Format: cell-based, human
Conditions: inflamed mucosa (IL1 beta 10 ng/ml overnight), 24 hours treatment
Description: The CacoGoblet cells were pre-treated with 10 ng/ml of IL1 beta overnight. […] A parallel treatment was carried out with the reference molecule etacortilen (Dexamethasone Sodium Phosphate) at 0.15% in order to study the overcoming of the inflammatory state of the mucosa. […] Once the non-adherent cells had been removed, the residual surface fluorescence of the THP-1 cells was evaluated under a microscope. The anti-inflammatory activity of the various compounds at the intestinal level was assessed in a static assay using the reduction in the cellular adhesion of THP-1 on CacoGoblet as an endpoint parameter. • 2) Ability of Cranberries to Prevent Adhesion of E. Coli to Mucosa The CacoGoblet cells were treated overnight with IL-1beta, the pro-inflammatory cytokine, prior to the adhesion assay in order to create inflamed mucosa. The treated monolayers were then treated with the products for 24 hours. The marked THP-1 cells were added on top of the CacoGoblet in each well. The THP-1 cells were marked with the fluorescent dye chloromethylfluorescein diacetate (CMFDA; Invitrogen). After incubation, the monolayer was gently washed to remove the non-adherent THP-1 cells. The adherent cells marked with the fluorescent dye were viewed under a fluorescence microscope. […]

Compound: C[C@@H]1C[C@H]2[C@@H]3CCC4=CC(=O)C=C[C@]4(C)[C@@]3(F)[C@@H](O)C[C@]2(C)[C@@]1(O)C(=O)COP(=O)(O)O [etacortilen, Dexamethasone Sodium Phosphate]
- adhesion of THP-1 cells: significant decrease in the adhesion of THP-1 cells
